pIC50: −log10 of the molar value. Read-outs that look alike come from different tables or passages of the source.
Key:
[1] = target: T1, Human mTOR (FLAG-TOR) (Homo sapiens, UniProt P42345); assay: Human mTOR kinase assay with purified enzyme, DELFIA format; format: biochemical
T1 construct: FLAG
How it was run: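 DELFIA readout: Eu-anti-P(T389)-S6K antibody (40 ng/mL, 1 h) on captured His6-S6K from the stopped reaction. Kinase step used purified FLAG-tagged human mTOR with test compound in HEPES (pH 7.4)/MnCl2/DTT buffer, 2 h at room temperature (linear 1–6 h), terminated by EDTA/EGTA.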

[2] = target: T2, PI3K (Homo sapiens, UniProt P42336); assay: Fluorescence polarization assay for PI3K; format: biochemical; conditions: read-out: PI3 Kinase α IC50
T2 construct: PI3 Kinase α IC50; other: PI3 Kinase α; other: PI3 Kinase α isoform, fluorescence polarization
How it was run: (§1)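 Fluorescence-polarization competition readout: after 30–60 min of PIP2/ATP turnover in 1% DMSO, a stop mix with GST-GRP (70 nM) and red probe (10 nM) was added.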

[3] = target: T3, PI3K (Homo sapiens, UniProt P48736); assay: Fluorescence polarization assay for PI3K; format: biochemical; conditions: read-out: PI3 Kinase γ IC50
T3 construct: PI3 Kinase γ IC50; other: PI3 Kinase γ; other: PI3 Kinase γ isoform, fluorescence polarization
How it was run: as §1

[4] = system: prostate line LNCap; assay: In vitro cell culture growth assay (MTS), LNCap; format: cell-based; conditions: Homo sapiens, LNCaP, 72 h, LNCap cells, three days after drug treatment
How it was run: (§2)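 Inhibitors were added one day after plating, and viable cells were measured 3 days later by MTS conversion (absorbance 490 nm).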

[5] = system: breast line MDA468; assay: In vitro cell culture growth assay (MTS), MDA468; format: cell-based; conditions: Homo sapiens, 72 h, MDA468 cells, three days after drug treatment
How it was run: as §2

[6] = purified human mTOR enzyme, DELFIA format
[7] = PI3 Kinase α isoform, fluorescence polarization
[8] = PI3 Kinase γ isoform, fluorescence polarization

T3 sequence (P48736 whole entry, canonical isoform): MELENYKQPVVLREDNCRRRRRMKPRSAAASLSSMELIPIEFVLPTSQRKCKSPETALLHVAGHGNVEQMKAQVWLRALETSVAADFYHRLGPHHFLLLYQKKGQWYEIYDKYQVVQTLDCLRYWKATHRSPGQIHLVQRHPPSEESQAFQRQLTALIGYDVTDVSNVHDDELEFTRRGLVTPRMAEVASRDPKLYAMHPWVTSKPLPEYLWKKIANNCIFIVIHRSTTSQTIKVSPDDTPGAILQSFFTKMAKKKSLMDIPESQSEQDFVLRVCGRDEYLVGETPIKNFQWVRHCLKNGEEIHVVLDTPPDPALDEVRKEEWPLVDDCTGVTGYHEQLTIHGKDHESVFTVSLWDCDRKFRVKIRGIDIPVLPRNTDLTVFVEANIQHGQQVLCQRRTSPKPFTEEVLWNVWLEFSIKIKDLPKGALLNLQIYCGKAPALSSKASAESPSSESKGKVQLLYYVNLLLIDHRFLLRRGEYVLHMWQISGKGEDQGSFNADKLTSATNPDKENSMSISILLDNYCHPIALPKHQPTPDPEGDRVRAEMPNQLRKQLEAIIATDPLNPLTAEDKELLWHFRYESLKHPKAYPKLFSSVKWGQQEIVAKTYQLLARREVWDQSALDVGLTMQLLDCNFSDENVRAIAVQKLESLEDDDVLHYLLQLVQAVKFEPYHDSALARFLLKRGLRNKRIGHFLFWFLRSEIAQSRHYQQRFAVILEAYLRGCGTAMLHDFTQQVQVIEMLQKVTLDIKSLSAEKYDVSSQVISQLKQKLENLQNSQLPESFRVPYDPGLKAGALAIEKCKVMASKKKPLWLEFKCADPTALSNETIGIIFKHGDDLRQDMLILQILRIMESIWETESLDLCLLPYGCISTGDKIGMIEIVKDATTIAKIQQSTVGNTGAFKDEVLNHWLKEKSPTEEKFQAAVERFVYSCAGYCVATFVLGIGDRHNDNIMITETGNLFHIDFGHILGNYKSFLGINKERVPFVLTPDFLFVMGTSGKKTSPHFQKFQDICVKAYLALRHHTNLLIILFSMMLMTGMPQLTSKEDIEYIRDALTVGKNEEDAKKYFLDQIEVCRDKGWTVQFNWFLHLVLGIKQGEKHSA
T2 sequence (P42336 whole entry, canonical isoform): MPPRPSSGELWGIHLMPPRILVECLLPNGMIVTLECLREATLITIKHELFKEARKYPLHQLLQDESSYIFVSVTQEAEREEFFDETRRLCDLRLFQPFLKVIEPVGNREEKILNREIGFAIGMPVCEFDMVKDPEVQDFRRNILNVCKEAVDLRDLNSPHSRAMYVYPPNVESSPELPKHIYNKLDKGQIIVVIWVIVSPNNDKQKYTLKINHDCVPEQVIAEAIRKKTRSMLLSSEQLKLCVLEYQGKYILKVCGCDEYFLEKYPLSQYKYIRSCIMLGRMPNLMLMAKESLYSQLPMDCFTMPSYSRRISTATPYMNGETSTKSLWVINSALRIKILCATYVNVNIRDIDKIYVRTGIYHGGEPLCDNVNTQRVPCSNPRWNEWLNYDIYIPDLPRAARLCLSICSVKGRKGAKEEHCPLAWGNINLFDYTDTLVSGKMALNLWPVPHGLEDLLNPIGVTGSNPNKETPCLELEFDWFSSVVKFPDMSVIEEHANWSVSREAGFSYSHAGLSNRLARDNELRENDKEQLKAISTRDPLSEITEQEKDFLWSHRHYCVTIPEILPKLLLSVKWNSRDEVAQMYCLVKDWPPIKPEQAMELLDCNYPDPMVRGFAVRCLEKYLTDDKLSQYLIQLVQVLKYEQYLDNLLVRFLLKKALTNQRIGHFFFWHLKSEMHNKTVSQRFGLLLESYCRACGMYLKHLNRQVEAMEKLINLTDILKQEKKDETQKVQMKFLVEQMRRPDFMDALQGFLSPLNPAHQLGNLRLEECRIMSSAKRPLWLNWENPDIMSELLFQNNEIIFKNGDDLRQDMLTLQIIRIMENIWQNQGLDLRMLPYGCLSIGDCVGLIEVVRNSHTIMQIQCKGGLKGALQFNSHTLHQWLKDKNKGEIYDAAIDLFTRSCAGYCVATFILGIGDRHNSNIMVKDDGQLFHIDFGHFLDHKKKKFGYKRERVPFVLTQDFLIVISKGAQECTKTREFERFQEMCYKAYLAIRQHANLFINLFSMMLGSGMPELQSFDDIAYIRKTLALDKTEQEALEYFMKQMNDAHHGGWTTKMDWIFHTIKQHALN

Compound | pIC50 [1, 6] | pIC50 [2, 7] | pIC50 [3, 8] | pIC50 [4] | pIC50 [5] | pIC50 [1] | pIC50 ([2]; PI3 Kinase α) | pIC50 ([3]; PI3 Kinase γ)
COCC(COC)n1ncc2c(N3CC4CCC(C3)O4)nc(-c3ccc(NC(=O)Nc4ccccc4)cc3)nc21 [Example 324, 1-(4-{1-[2-methoxy-1-(methoxymethyl)ethyl]-4-(8-oxa-3-azabicyclo[3.2.1]oct-3-yl)-1H-pyrazolo[3,4-d]pyrimidin-6-yl}phenyl)-3-phenylurea] | 8.47 | 6.42 | 5.28 | 8.10 | 7.24 |  |  | 
O=C(Nc1ccc(-c2nc(N3CC4CCC(C3)O4)c3cnn(CC(F)(F)F)c3n2)cc1)Nc1ccc(N2CCOCC2)nc1 [Example 252, 1-(6-morpholin-4-ylpyridin-3-yl)-3-{4-[4-(8-oxa-3-azabicyclo[3.2.1]oct-3-yl)-1-(2,2,2-trifluoroethyl)-1H-pyrazolo[3,4-d]pyrimidin-6-yl]phenyl}urea] |  |  |  | 9.00 | 8.10 | 9.33 | 5.02 | < 5.00
CC(C)OC(=O)N1CCC(n2ncc3c(N4CC5CCC(C4)O5)nc(-c4ccc(NC(=O)NC5CC5)cc4)nc32)CC1 [Example 70, isopropyl 4-[6-{4-[(cyclopropylcarbamoyl)amino]phenyl}-4-(8-oxa-3-azabicyclo[3.2.1]oct-3-yl)-1H-pyrazolo[3,4-d]pyrimidin-1-yl]piperidine-1-carboxylate] |  |  |  | 8.52 | 6.85 | 9.36 | 6.03 | 5.02
O=C(Nc1ccc(-c2nc(N3CC4CCC(C3)O4)c3cnn(CCO)c3n2)cc1)Nc1ccc(N2CCOCC2)nc1 [Example 206, 1-{4-[1-(2-hydroxyethyl)-4-(8-oxa-3-azabicyclo[3.2.1]oct-3-yl)-1H-pyrazolo[3,4-d]pyrimidin-6-yl]phenyl}-3-(6-morpholin-4-ylpyridin-3-yl)urea] |  |  |  | 6.72 | 6.92 | 9.15 | 6.33 | 4.93
CNC(=O)Nc1ccc(-c2nc(N3CC4CCC(C3)O4)c3cnn(CCO)c3n2)cc1 [Example 193, 1-{4-[1-(2-hydroxyethyl)-4-(8-oxa-3-azabicyclo[3.2.1]oct-3-yl)-1H-pyrazolo[3,4-d]pyrimidin-6-yl]phenyl}-3-methylurea] |  |  |  | 6.19 | 6.01 | 8.55 | 6.43 | < 5.00
COC(=O)N1CCC(n2ncc3c(N4CC5CCC(C4)O5)nc(-c4ccc(NC(=O)Nc5ccc(N6CCN(C)CC6)cc5)cc4)nc32)CC1 [Example 166, methyl 4-{6-[4-({[4-(4-methylpiperazin-1-yl)phenyl]carbamoyl}amino)phenyl]-4-(8-oxa-3-azabicyclo[3.2.1]oct-3-yl)-1H-pyrazolo[3,4-d]pyrimidin-1-yl}piperidine-1-carboxylate] |  |  |  | > 9.00 | 8.70 | 9.32 | 6.93 | 6.06
COC1CCC(n2ncc3c(N4CC5CCC(C4)O5)nc(-c4ccc(NC(=O)Nc5cccnc5)cc4)nc32)CC1 (stereo not shown) [Example 384, 1-{4-[1-(4-methoxycyclohexyl)-4-(8-oxa-3-azabicyclo[3.2.1]oct-3-yl)-1H-pyrazolo[3,4-d]pyrimidin-6-yl]phenyl}-3-pyridin-3-ylurea] | 9.76 | 6.53 | 5.66 | 8.70 | 7.66 |  |  | 
CCn1ncc2c(N3CC4CCC(C3)O4)nc(-c3ccc(NC(=O)NCCN)cc3)nc21 [Example 173, 1-(2-aminoethyl)-3-{4-[1-ethyl-4-(8-oxa-3-azabicyclo[3.2.1]oct-3-yl)-1H-pyrazolo[3,4-d]pyrimidin-6-yl]phenyl}urea] |  |  |  | 6.57 | 6.19 | 8.65 | 6.57 | 5.50
CCn1ncc2c(N3CC4CCC(C3)O4)nc(-c3ccc(NC(=O)OCCO)cc3)nc21 [Example 45, 2-hydroxyethyl {4-[1-ethyl-4-(8-oxa-3-azabicyclo[3.2.1]oct-3-yl)-1H-pyrazolo[3,4-d]pyrimidin-6-yl]phenyl}carbamate] |  |  |  | 7.00 | 6.57 | 8.92 | 5.79 | < 5.00
O=C(Nc1ccc(OCCO)cc1)Nc1ccc(-c2nc(N3CC4CCC(C3)O4)c3cnn(CC(F)(F)F)c3n2)cc1 [Example 263, 1-[4-(2-hydroxyethoxy)phenyl]-3-{4-[4-(8-oxa-3-azabicyclo[3.2.1]oct-3-yl)-1-(2,2,2-trifluoroethyl)-1H-pyrazolo[3,4-d]pyrimidin-6-yl]phenyl}urea] |  |  |  | > 9.00 | 8.30 | 9.67 | 6.83 | 4.98
O=C(Nc1ccc(CO)cc1)Nc1ccc(-c2nc(N3CC4CCC(C3)O4)c3cnn(CC(F)(F)F)c3n2)cc1 [Example 253, 1-[4-(hydroxymethyl)phenyl]-3-{4-[4-(8-oxa-3-azabicyclo[3.2.1]oct-3-yl)-1-(2,2,2-trifluoroethyl)-1H-pyrazolo[3,4-d]pyrimidin-6-yl]phenyl}urea] |  |  |  | 9.00 | > 9.00 | 9.82 | 7.25 | 6.11
COC(=O)Nc1ccc(-c2nc(N3CC4CCC(C3)O4)c3cnn(CCN(C)C)c3n2)cc1 [Example 154, methyl (4-{1-[2-(dimethylamino)ethyl]-4-(8-oxa-3-azabicyclo[3.2.1]oct-3-yl)-1H-pyrazolo[3,4-d]pyrimidin-6-yl}phenyl)carbamate] |  |  |  | 5.54 | 4.72 | 7.07 | 5.37 | < 5.00
COC(=O)N1CCC(n2ncc3c(N4CC5CCC(C4)O5)nc(-c4ccc(NC(=O)Nc5ccc(CCO)cc5)cc4)nc32)CC1 [Example 165, methyl 4-{6-[4-({[4-(2-hydroxyethyl)phenyl]carbamoyl}amino)phenyl]-4-(8-oxa-3-azabicyclo[3.2.1]oct-3-yl)-1H-pyrazolo[3,4-d]pyrimidin-1-yl}piperidine-1-carboxylate] |  |  |  | > 9.00 | > 9.00 | 10.02 | 7.27 | 5.60
Oc1cccc(-c2nc(N3C[C@@H]4C[C@H]3CO4)c3cnn(-c4ccccc4)c3n2)c1 [Example 382, 3-{4-[(1S,4S)-2-oxa-5-azabicyclo[2.2.1]hept-5-yl]-1-phenyl-1H-pyrazolo[3,4-d]pyrimidin-6-yl}phenol] | 7.31 | 5.72 | 4.93 | 5.92 | 5.26 |  |  | 
COC(=O)N1CCC(n2ncc3c(N4CC5CCC(C4)O5)nc(-c4ccc(NC(=O)OCCN5CCOCC5)cc4)nc32)CC1 [Example 117, methyl 4-[6-(4-{[(2-morpholin-4-ylethoxy)carbonyl]amino}phenyl)-4-(8-oxa-3-azabicyclo[3.2.1]oct-3-yl)-1H-pyrazolo[3,4-d]pyrimidin-1-yl]piperidine-1-carboxylate] |  |  |  | 5.36 | 4.66 | < 6.10 | < 5.00 | < 5.00
CNC(=O)Nc1ccc(-c2nc(N3CC4CCC(C3)O4)c3cnn(C4CCC(OC)(OC)CC4)c3n2)cc1 [Example 150, 1-{4-[1-(4,4-dimethoxycyclohexyl)-4-(8-oxa-3-azabicyclo[3.2.1]oct-3-yl)-1H-pyrazolo[3,4-d]pyrimidin-6-yl]phenyl}-3-methylurea] |  |  |  | 8.70 | 7.46 | 9.13 | 6.19 | < 5.00
COC(=O)N1CCC(n2ncc3c(N4C5CCC4COC5)nc(-c4ccc(NC(=O)NCCF)cc4)nc32)CC1 [Example 358, methyl 4-[6-(4-{[(2-fluoroethyl)carbamoyl]amino}phenyl)-4-(3-oxa-8-azabicyclol[3.2.1]oct-8-yl)-1H-pyrazolo[3,4-d]pyrimidin-1-yl]piperidine-1-carboxylate] | 9.31 | 5.11 | 5.10 | 8.22 | 7.46 |  |  | 
CCn1nc(CN2CCN(C)CC2)c2c(N3CC4CCC(C3)O4)nc(-c3ccc(NC(=O)NC)cc3)nc21 [Example 353, 1-(4-{1-ethyl-3-[(4-methylpiperazin-1-yl)methyl]-4-(8-oxa-3-azabicyclo[3.2.1]oct-3-yl)-1H-pyrazolo[3,4-d]pyrimidin-6-yl}phenyl)-3-methylurea] | 7.82 | 5.81 | < 5.00 | 6.15 | 5.92 |  |  | 
O=C(Nc1ccncc1)Nc1ccc(-c2nc(N3CC4CCC(C3)O4)c3cnn(CCF)c3n2)cc1 [Example 249, 1-{4-[1-(2-fluoroethyl)-4-(8-oxa-3-azabicyclo[3.2.1]oct-3-yl)-1H-pyrazolo[3,4-d]pyrimidin-6-yl]phenyl}-3-pyridin-4-ylurea] |  |  |  | > 9.00 | 8.10 | 9.73 | 6.99 | 5.92
O=C(Nc1ccncc1)Nc1ccc(-c2nc(N3CC4CCC(C3)O4)c3sccc3n2)cc1 [Example 413, 1-{4-[4-(8-oxa-3-azabicyclo[3.2.1]oct-3-yl)thieno[3,2-d]pyrimidin-2-yl]phenyl}-3-pyridin-4-ylurea] | 9.41 | 7.10 | 5.86 | 8.00 | 7.32 |  |  | 
